Columns and labels:
[1] = cited from earlier work
[2] = 0.2 mg/kg or 2 mg/kg s.c.; no toxicity controls included; cited from earlier work
[3] = mouse, in vivo
[4] = subcutaneously injected; cited from earlier work
SARS-CoV (Urbani) = format: in vivo, mice

Substance | Dose found to be safe for humans [1] [mg/kg body weight/day] | Tolerability of the doses used (previously shown) [2] | Tolerability of treatments [3] | Plasma half-life [4] | Effect on virus lung titers (SARS-CoV (Urbani); mouse, in vivo) | Reduction of virus lung titers (SARS-CoV (Urbani); mouse, in vivo) | Reduction of virus titers (SARS-CoV (Urbani); mouse, in vivo) | Virus titer reductions (range over regimens) (SARS-CoV (Urbani); mouse, in vivo) | Mean Body Weight Change [3] [g] | Inhibition of lung virus titers (SARS-CoV (Urbani); 50 μg/mouse i.n., positive control, P<0.01) [log 10 units] | Virus Titer (Log10 CCID50/g) (SARS-CoV (Urbani); lung, day 3 after infection, 50 μg/mouse i.n., -24 h, +12 h, mean ± SD, P < 0.01 vs buffer)
Ac-SDAAVDTSSEITTKDLKEKKEVVEEAEN-OH [thymosin alpha-1] | ≤ 16 | well tolerated | very well tolerated | about two | significantly reduced virus lung titers | about one | approximately 0.5 log10 unit | 0.5-1.0 log10 units |  |  | 
Poly-ICLC |  |  |  |  |  |  |  |  | 0.0 | ~3 | 2.9 ± 0.1

Source: patent US20100311656A1 (priority 2003, published 2010)
